As usually defined, the IC50 is the concentration needed to halve the response being measured. For orientation: inhibition means the relative decrease from the control value, in per cent. A high value points to a strong effect.

The results in this text go back to ChEMBL document CHEMBL1146677, “Orally active anti-proliferation agents: novel diphenylamine derivatives as FGF-R2 autophosphorylation inhibitors” (Bioorg Med Chem Lett, 2004).

In brackets after ≈: the same amount, converted by molar mass. Activity calls are given as the source filed them.

Series [1] is filed under the species Rattus norvegicus. Nature of the series: Percent remaining after incubation with rat liver microsomes for 10 min. Format: functional. A general note: Liver microsomes are a subcellular fraction often used to study metabolism.
Series [2] deals with T1, Fibroblast growth factor receptor 2 (Homo sapiens, UniProt P21802). Nature of the series: In vitro inhibition against autophosphorylation of Fibroblast growth factor receptor 2 in the human scirrhous gastric carcinoma cell line.
Target sequence in this assay (P21802 whole entry): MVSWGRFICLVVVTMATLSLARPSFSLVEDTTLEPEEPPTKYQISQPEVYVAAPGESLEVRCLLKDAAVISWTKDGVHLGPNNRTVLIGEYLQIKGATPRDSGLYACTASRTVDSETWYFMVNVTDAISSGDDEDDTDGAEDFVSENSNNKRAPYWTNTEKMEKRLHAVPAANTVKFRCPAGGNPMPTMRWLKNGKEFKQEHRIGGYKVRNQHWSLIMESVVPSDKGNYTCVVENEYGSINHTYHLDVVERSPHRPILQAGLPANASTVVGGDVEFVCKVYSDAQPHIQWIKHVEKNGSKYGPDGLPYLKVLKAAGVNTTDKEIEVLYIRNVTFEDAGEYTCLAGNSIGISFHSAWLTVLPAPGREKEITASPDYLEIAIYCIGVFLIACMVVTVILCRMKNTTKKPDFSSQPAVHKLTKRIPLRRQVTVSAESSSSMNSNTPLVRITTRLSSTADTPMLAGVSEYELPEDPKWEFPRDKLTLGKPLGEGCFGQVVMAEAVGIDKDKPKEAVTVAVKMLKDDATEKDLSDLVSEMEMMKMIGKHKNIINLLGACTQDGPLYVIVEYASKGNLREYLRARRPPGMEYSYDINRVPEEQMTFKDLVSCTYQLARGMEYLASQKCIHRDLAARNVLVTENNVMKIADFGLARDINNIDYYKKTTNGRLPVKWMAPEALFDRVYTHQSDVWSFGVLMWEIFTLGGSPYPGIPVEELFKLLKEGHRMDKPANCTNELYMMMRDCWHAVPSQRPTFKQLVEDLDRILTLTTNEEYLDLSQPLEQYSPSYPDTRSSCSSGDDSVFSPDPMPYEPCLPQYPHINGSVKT
Series [3] can be described thus: Solubility after injection of water. The conditions noted are these: read-out: Activity. Format: physicochemical.
Series [4] addresses Mast/stem cell growth factor receptor Kit (Homo sapiens, UniProt P10721). Nature of the series: Inhibition of c-Kit autophosphorylation in intact cells. Format: cell-based.
Series [5] addresses T2, Insulin-like growth factor 1 receptor (Homo sapiens, UniProt P08069). Nature of the series: Inhibition of IGF-receptor 1 autophosphorylation in intact cells at 10 uM (inactive). Format: cell-based.
The target of series [6] is Vascular endothelial growth factor receptor 2 (Homo sapiens, UniProt P35968). Nature of the series: Inhibition of vascular endothelial growth factor receptor 2 autophosphorylation in intact cells. Type of series: cell-based.
The species entered for series [7] is Homo sapiens. Nature of the series: Percent remaining after incubation with human liver microsomes for 10 min. Type of series: functional.
Series [8] is filed under the species Rattus norvegicus. Nature of the series: Percent remaining after incubation with rat liver microsomes for 40 min. Type of series: functional.
Series [9] in a line: Solubility after at pH 1.2. Format: physicochemical. Particulars: buffer, read-out: Activity.
Series [10] has as its target T2, Insulin-like growth factor 1 receptor. Nature of the series: Inhibition of IGF-receptor 1 autophosphorylation in intact cells. Type of series: cell-based.
For series [11], the target named is T3, Hepatocyte growth factor receptor (Homo sapiens, UniProt P08581). Nature of the series: Inhibition of c-Met autophosphorylation in intact cells at 10 uM (inactive). Format: cell-based.
The target of series [12] is Platelet-derived growth factor receptor (Homo sapiens, UniProt P09619+P16234). Nature of the series: Inhibition of PDGF-receptor autophosphorylation in intact cells. Type of series: cell-based.
The species named for series [13] is Homo sapiens. Nature of the series: Percent remaining after incubation with human liver microsomes for 40 min. Type of series: functional.
In series [14] the target is T4, Epidermal growth factor receptor (Homo sapiens, UniProt P00533). Nature of the series: Inhibition of EGF-receptor autophosphorylation in intact cells. Type of series: cell-based.
Series [15] has as its target T4, Epidermal growth factor receptor. Nature of the series: Inhibition of EGF-receptor autophosphorylation in intact cells at 10 uM (inactive). Format: cell-based.
Series [16] deals with T3, Hepatocyte growth factor receptor. Nature of the series: Inhibition of c-Met autophosphorylation of in intact cells. Format: cell-based.
The target in series [17] is T1, Fibroblast growth factor receptor 2. Nature of the series: Ex vivo inhibition of fibroblast growth factor receptor (FGF-R2) autophosphorylation 5 hr after the oral administration at 100 mg/kg. Type of series: functional, organism-based. On the set-up: dose 100 mg/kg.
Target sequence in this assay (P21802 22-821 limits assumed): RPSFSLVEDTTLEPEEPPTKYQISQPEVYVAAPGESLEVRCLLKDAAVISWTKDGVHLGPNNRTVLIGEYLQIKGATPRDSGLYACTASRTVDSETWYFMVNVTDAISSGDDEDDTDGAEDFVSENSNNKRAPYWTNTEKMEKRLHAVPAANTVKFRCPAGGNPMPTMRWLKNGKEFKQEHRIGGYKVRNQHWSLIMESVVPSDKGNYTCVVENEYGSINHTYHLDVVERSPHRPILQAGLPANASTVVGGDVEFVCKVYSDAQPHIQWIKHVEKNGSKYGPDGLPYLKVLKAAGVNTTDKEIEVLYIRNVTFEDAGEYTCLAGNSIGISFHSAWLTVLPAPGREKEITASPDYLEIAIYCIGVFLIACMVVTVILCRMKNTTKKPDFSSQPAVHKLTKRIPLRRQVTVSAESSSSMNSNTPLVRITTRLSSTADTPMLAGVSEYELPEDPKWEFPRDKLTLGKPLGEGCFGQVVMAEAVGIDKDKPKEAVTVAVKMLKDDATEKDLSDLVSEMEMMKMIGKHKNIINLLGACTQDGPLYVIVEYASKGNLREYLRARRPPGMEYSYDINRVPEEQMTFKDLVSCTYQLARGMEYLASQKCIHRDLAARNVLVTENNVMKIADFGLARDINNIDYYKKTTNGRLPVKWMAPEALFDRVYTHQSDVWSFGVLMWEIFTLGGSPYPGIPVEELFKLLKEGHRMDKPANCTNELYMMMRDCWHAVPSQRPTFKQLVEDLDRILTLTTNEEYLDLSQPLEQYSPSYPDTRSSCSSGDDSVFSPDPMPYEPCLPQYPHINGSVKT
A short description of series [18]: Solubility after at a pH 1.2. Format: physicochemical. The conditions noted are these: buffer, read-out: Activity.

T2 sequence (P08069 31-736 limits assumed): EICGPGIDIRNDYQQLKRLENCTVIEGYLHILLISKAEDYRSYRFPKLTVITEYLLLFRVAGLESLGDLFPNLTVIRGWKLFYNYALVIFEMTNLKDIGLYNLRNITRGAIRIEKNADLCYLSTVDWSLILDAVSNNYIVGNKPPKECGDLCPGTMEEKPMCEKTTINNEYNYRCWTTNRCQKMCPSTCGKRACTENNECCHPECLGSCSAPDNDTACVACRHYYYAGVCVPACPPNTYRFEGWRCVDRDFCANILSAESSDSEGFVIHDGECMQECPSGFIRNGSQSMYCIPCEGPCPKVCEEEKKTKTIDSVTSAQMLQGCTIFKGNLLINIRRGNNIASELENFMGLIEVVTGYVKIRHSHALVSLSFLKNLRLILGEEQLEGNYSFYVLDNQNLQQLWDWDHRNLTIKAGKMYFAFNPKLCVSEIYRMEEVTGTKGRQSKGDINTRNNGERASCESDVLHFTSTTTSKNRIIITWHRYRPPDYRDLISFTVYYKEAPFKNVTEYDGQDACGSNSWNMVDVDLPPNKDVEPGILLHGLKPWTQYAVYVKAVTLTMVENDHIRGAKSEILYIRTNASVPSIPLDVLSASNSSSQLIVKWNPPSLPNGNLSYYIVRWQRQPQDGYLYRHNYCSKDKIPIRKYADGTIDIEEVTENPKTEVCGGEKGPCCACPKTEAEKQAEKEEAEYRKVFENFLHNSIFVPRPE
T2 sequence (P08069 741-1367 limits assumed): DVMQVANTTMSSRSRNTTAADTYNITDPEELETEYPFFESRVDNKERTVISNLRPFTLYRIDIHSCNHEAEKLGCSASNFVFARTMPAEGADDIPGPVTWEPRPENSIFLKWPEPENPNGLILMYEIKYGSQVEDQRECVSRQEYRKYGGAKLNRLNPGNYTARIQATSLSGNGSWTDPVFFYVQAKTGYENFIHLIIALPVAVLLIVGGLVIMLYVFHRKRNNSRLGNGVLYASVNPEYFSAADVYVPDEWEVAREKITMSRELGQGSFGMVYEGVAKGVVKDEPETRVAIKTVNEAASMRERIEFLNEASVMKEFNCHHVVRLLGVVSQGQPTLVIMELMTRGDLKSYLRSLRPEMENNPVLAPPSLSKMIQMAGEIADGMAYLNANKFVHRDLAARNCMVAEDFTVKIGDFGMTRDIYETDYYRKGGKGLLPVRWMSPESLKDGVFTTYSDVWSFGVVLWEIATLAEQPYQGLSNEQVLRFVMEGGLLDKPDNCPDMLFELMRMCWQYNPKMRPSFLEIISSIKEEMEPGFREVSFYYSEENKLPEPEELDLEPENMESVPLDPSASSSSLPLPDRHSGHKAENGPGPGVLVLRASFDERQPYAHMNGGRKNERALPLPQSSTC
T3 sequence (P08581 whole entry): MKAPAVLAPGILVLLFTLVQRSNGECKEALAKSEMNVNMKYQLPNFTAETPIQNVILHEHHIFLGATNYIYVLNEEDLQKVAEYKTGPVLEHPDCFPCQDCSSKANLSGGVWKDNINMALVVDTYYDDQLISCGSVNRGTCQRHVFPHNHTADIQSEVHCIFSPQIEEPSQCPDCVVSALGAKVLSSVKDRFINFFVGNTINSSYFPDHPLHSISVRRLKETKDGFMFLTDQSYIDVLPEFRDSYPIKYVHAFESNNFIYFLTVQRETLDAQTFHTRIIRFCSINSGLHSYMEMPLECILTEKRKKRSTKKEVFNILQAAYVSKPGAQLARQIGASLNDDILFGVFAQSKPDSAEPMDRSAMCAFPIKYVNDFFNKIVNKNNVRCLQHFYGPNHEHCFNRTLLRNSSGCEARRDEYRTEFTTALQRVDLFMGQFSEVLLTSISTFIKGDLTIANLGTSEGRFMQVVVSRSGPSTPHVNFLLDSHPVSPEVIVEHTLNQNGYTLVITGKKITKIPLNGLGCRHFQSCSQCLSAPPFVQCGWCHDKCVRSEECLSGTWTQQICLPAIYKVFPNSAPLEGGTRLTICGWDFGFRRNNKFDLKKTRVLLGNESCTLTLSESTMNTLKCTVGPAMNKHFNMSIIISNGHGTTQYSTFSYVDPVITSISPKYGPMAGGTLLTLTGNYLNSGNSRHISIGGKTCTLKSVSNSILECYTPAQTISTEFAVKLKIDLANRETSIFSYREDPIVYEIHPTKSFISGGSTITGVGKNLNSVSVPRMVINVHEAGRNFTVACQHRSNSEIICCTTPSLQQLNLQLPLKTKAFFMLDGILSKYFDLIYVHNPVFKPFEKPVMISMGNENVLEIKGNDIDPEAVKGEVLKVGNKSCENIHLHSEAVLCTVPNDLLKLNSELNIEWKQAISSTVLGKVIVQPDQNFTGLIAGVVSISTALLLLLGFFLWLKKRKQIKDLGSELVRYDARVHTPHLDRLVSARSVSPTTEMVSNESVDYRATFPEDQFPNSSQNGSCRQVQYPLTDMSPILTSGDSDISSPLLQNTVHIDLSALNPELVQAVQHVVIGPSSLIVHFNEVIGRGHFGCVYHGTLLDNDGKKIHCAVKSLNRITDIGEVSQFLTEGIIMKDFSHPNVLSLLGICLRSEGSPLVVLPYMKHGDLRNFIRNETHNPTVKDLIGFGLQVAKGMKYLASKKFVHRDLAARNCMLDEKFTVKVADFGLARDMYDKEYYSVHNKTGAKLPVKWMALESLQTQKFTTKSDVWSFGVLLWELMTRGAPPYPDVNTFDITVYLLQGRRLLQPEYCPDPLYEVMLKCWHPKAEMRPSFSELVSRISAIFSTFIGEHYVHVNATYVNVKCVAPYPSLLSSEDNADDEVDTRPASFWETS

The compound `COc1cc2c(Oc3ccc(Nc4ccc(C(C)(C)C)cc4)cc3)ccnc2cc1OCCN1CCC(CO)CC1` came in with a Metabolism in the series filed under Rattus norvegicus [1] of 51%. For the same compound, half-maximal inhibition in [2] (IC50) required 23 nM.

As to `COc1cc2c(Oc3ccc(Nc4ccc(C(C)(C)C)cc4)cc3)ccnc2cc1OCCCN1CCCCC1`, the Metabolism in the series listed under Rattus norvegicus [1] came to 28%. This compound showed an IC50 in series [2] of 350 nM.

As for `COc1cc2c(Oc3ccc(Nc4ccc(C(C)(C)C)cc4)cc3)ccnc2cc1OCC(O)CN1CCCCC1` (stereo unspecified), in the series filed under Rattus norvegicus [1], the Metabolism came to 78%. In addition, the IC50 in series [2] came to 200 nM.

The compound `COc1cc2nccc(Oc3ccc(Nc4ccc(C(C)(C)C)cc4)c(F)c3)c2cc1OC` displayed an IC50 in [2] of 63 nM.

Consider `COc1cc2c(Oc3ccc(Nc4ccc(C(C)(C)C)cc4)cc3)ccnc2cc1OCCNCCO`, for which the values for the solubility in [3] and in [9] were 108 µg/mL (≈ 215 µM) and 802 µg/mL (≈ 1600 µM), respectively. Also, the IC50 in series [4] was 480 nM; in [6], 83 nM; in series [10], greater than 10 µM; in series [12], 100 nM; in [14], greater than 10 µM; in [2], 88 nM. For the same compound, the IC50 in [16] is greater than 10 µM. Also, the outcome in series [5], in [11] and in series [15] was inactive. Moreover, the Metabolism in the series filed under Homo sapiens [7] worked out at 99%; in the series filed under Rattus norvegicus [8], 78%; in the series filed under Rattus norvegicus [1] it was 97%; in the series listed under Homo sapiens [13], 89%.

In [2], `COc1cc2nccc(Oc3ccc(NC4CCC(C(C)(C)C)CC4)cc3)c2cc1OC` (stereo unspecified) had an IC50 of 3400 nM.

The compound `COc1cc2c(Oc3ccc(Nc4ccc(C(C)(C)C)cc4)c(F)c3)ccnc2cc1OCCNCCO` registered a Metabolism in the series filed under Rattus norvegicus [1] of 92%. This compound had an IC50 in series [2] of 260 nM.

In series [2], `COc1cc2nccc(Oc3ccc(Oc4ccc(C(C)(C)C)cc4)cc3)c2cc1OC` came in with an IC50 of 440 nM.

`COc1cc2nccc(Oc3ccc(Nc4ccc(C(C)(C)C)cc4)c(C(F)(F)F)c3)c2cc1OC` showed an IC50 in series [2] greater than 10000 nM.

As for `COc1cc2c(Oc3ccc(Nc4ccc(C(C)(C)C)cc4)cc3F)ccnc2cc1OCCNCCO`, in the series listed under Rattus norvegicus [1], the Metabolism is 60%. The compound further displayed an IC50 in [2] of 70 nM.

Compound `COc1cc2nccc(Oc3ccc(Nc4cccc(-c5ccccc5)c4)cc3)c2cc1OC` had an IC50 in series [2] greater than 10000 nM.

In the case of `COc1ccc(Nc2ccc(Oc3ccnc4cc(OC)c(OC)cc34)cc2)cc1`, the IC50 in [2] worked out at 780 nM.

On to `COc1cc2c(Oc3ccc(Nc4ccc(C(C)(C)C)cc4)cc3)ccnc2cc1OCCN1CCOCC1`, for which the Metabolism in the series filed under Rattus norvegicus [1] stood at 9%. In series [2], it took 200 nM to reach half-maximal inhibition (IC50).

In series [17], `COc1cc2nccc(Oc3ccc(Cc4ccc(C(C)(C)C)cc4)cc3)c2cc1OC` displayed an inhibition of 5%. The same compound had an IC50 in [2] greater than 1000 nM.

Compound `COc1cc2nccc(Oc3ccc(Nc4ccc(C(C)(C)C)cc4)cc3F)c2cc1OC` showed an IC50 in series [2] of 54 nM.

`COc1cc2c(Oc3ccc(Nc4ccc(C(C)(C)C)cc4)cc3)ccnc2cc1OCCN(CCO)CCO` registered a Metabolism in the series listed under Rattus norvegicus [1] of 46%. The IC50 in [2] is 71 nM.

`COc1cc2nccc(Oc3ccc(Nc4ccc(C(C)(C)C)cc4)c(C)c3)c2cc1OC` registered an IC50 in series [2] of 100 nM. This counts as sub-micromolar.

For `COc1cc2nccc(Oc3ccc(Nc4ccc(C(C)(C)C)cc4)c(C)c3C)c2cc1OC`, the IC50 in [2] is 130 nM.

On to `COc1cc2nccc(Oc3ccc(Nc4ccc(C(C)(C)C)cc4)cc3C)c2cc1OC`, for which, in series [2], the IC50 is greater than 10000 nM.

Regarding `COc1cc2c(Oc3ccc(Nc4ccc(C(C)(C)C)cc4)cc3)ccnc2cc1OCC(O)CN1CCOCC1` (stereo unspecified), the Metabolism in the series filed under Rattus norvegicus [1] was determined as 72%. Besides, in [2], the IC50 stood at 71 nM.

As to `COc1cc2nccc(Oc3ccc(Nc4ccccc4)cc3)c2cc1OC`, the IC50 in series [2] is 8900 nM.

Compound `COc1cc2nccc(Oc3ccc(C(=O)c4ccc(C(C)(C)C)cc4)cc3)c2cc1OC` displayed an inhibition in [17] of 3%. The IC50 in series [2] was 190 nM.

`COc1cc2nccc(Oc3ccc(Nc4ccc(C(C)C)cc4)cc3)c2cc1OC` showed an IC50 in series [2] of 200 nM.

In the case of `COc1cc2nccc(Oc3ccc(Nc4ccc(C(C)(C)C)cc4)cc3)c2cc1OC`, in [18], the solubility came to 3 µg/mL (≈ 7 µM). Moreover, in series [17], the inhibition amounted to 70%. Moreover, the IC50 in series [2] was found to be 40 nM.
